According to patent US20160051533A1, “DIAGNOSIS AND PHARMACOLOGICAL TREATMENT OF SEASONAL AFFECTIVE DISORDER AND SYMPTOMS OF SEASONALITY” (Ladd Research LLC, priority 2014, published 2016):
Entries after “also recorded” stand apart in the source; their conditions may differ.

Columns and labels:
[1] = target: T1, OxR2 (Homo sapiens, UniProt O43614); conditions: read-out: Human OxR2 FLIPR; cited from earlier work
T1 sequence (O43614 1-444): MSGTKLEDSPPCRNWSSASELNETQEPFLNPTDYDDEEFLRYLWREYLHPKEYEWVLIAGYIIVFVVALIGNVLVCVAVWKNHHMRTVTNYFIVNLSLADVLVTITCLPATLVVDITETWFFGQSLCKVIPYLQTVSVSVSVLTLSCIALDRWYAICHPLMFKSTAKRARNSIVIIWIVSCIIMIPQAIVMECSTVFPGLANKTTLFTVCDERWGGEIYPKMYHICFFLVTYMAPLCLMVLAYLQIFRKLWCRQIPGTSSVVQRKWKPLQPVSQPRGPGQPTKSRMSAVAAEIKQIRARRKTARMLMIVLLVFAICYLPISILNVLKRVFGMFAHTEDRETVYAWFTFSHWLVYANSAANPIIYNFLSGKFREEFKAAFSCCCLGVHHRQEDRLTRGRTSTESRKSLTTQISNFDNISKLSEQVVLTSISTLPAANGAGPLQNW

[2] = system: Wistar female rats; test: Symptoms noticed after administration; type: in vivo, rat; conditions: also seen with 20% DMSO vehicle; stated to be induced by DMSO
From the text: No other symptom was noticed.

[3] = system: Wistar female rats; test: Forced swimming test (FST) in rats under shifted photoperiods; conditions: TCS 1102 20 mg/kg IP
Procedure: Animals of CL and LL groups received the vehicles in the same conditions.
The same animals were tested by the same experimenter on the two FST sessions. The same proportion of animals of each group was tested by each experimenter.
The apparatus used for the experiment consisted of glass cylinders (64 cm high, 25 cm diameter) filled with 30 cm 25° C. water. The experiment was recorded with a camcorder, placed in front of the glass cylinder and connected to a screen, allowing the experimenter to watch the test online.
Light intensity was 15-20 Lux at the level of glass cylinders.
The behavior of the rat was measured on the second trial.
Behavior was classified as one of three behaviors: • 1) Immobility, defined as floating in the water without struggling and using only small movements to keep the head above water. • 2) Swimming, defined as moving limbs in an active manner, more than required to keep the head above water and causing movement among quadrants of the cylinder. • 3) Climbing, defined as making active movements with forepaws moving in and out of the water, usually directed against the side of the cylinder. Parameters analyzed were:
1) Imo=the immobility time.
2) Swm=the swimming time.
3) Clb=the climbing time.
A depressive-like profile is indicated by an increase of the immobility time and a decrease of either the swimming time or the climbing time. Conversely, an antidepressant-like effect is indicated by a decrease of the immobility time and an increase of either the swimming time or the climbing time.
(§1) A difference was considered: • 1) Statistically significant: p≦0.05. • 2) Close-to-significant difference: 0.05<p≦0.10. • 3) Not significant: p>0.10.

[4] = system: Wistar female rats; test: Elevated-plus maze (EPM) test in rats under shifted photoperiods; conditions: EPM
From the text: Animals were subjected to the elevated-plus maze (EPM) test only once during the period of the study: at the 43th, 44th or 45th days of treatment (see Table 2).
The apparatus consisted of a plus-shaped maze, elevated 50 cm from the floor, with two opposite open arms, 50×10 cm, crossed at right angles by two arms of the same dimensions, but enclosed by 40-cm-high black opaque walls with an open roof. In addition a 1-cm-high edge made of Plexiglas surrounded the open arms to avoid falls.
Light intensity was 10 Lux at the level of open arms.
The experiment was recorded with a camcorder, placed 1.5 m above the maze and connected to a screen, allowing the experimenter to watch the test online.
Animals were individually placed for a 5-min session in the center of the plus-maze. The number of arm entries and the time spent in arms were recorded. An arm entry is defined as all four paws into the arm.
Other parameters were recorded: the time spent in open arms, the number of open arm entries, the time spent in enclosed arms, the number of enclosed arm entries and the time spent in the center of the maze.
1) Enclosed arm entries: entries into the protected arms of the EPM
as §1

[5] = Body weight / growth rate in rats under shifted photoperiods; conditions: for growth rate: SL-TCS vs SL-Veh, IP (FIGS. 25, 27); for Body weight in percent of initial body weight (d−4): short light (SL) rats, mean
Procedure: Rats were weighed three times a week in order to examine the effect of L/D changes and the effects of treatments on the body weight.
Animals' body weight was recorded three days per week. The body weight on day d-4 was considered as the initial body weight.
Initial body weight (BW) between recorded on day d-4, before the initiation of L/D change analyzed by 1-factor ANOVA and Student's t-test.
Therefore, the following analyses were performed on the BW expressed in percentage of the initial BW. • 2) Effect of L/D condition:
The BW expressed in percentage of the initial BW was compared between by ANOVA for repeated measures (from day dl to day d54): • a) On C-Veh, LL-Veh and SL-Veh groups: overall effect. • b) On C-Veh and LL-Veh groups: effect of LL. • c) On C-Veh and SL-Veh groups: effect of SL. • d) On LL-Veh and SL-Veh groups: difference LL vs. SL. • 3) Effect of vehicle:

[6] = 100 mpk ip 30 min; cited from earlier work
[7] = target: P-gp (Homo sapiens, UniProt P08183); conditions: cited from earlier work
Chain of P-gp (P08183 whole entry): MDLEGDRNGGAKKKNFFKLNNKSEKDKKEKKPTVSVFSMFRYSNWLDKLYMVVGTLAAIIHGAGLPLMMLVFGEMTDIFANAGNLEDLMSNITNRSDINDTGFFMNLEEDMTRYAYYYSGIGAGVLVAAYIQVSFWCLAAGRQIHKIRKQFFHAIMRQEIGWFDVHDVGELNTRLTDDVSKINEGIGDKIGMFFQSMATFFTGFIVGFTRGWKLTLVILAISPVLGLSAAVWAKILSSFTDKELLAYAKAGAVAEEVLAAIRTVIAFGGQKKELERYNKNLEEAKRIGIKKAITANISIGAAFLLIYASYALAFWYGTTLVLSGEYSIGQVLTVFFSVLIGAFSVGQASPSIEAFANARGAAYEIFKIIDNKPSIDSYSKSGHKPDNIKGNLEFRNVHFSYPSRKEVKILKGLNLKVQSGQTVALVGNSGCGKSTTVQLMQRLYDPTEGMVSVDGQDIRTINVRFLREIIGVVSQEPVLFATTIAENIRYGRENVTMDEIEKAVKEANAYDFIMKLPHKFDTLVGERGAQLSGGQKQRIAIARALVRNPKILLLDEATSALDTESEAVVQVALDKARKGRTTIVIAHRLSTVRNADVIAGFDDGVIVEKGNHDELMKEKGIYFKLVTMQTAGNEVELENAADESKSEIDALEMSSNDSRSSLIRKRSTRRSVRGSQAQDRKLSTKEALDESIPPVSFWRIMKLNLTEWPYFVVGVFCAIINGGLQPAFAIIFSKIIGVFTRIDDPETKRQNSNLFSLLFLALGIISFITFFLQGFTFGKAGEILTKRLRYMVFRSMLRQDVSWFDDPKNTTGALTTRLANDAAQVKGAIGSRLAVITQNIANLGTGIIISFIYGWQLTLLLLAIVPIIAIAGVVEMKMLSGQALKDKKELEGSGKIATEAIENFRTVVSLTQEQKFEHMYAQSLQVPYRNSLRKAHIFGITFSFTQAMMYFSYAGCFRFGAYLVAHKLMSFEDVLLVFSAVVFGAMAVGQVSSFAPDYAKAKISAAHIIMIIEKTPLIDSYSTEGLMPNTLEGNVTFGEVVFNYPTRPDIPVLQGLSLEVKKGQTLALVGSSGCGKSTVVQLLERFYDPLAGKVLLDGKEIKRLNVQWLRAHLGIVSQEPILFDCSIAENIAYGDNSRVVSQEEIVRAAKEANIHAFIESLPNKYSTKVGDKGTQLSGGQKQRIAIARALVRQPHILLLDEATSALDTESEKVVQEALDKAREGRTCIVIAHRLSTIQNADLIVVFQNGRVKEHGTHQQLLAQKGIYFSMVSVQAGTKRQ

[8] = Bergman et al. 2008; cited from earlier work
[9] = system: Wistar female rats; test: Open-field test (OFT) in rats under shifted photoperiods
Procedure: Activity was tested in open boxes (open-fields: 100 cm wide, 100 cm long, 50 cm high) made of PVC. Animals' activity was recorded by an electronic videotracking detection system (Viewpoint, France) allowing to detect the distance travelled and the time spent in different parts of the open-field.
Light intensity was 7-10 Lux at the center of the open-fields.
Animals were individually placed for a 10-min session in the center of one quadrant of the open-field.
Parameters analyzed were: • 1) One parameter taken as an index of locomotor-exploratory behavior: • The distance travelled in the open-field. • 2) Two parameters taken as indices of anxiety behavior: • a) % Dist Cent=the percentage of distance travelled in the central 60×60 cm area of the open-field. • b) % Time cent=the percentage of time spent in the central 60×60 cm area of the open-field.
as §1

[10] = SL-TCS vs SL-DMSO, 20 mg/kg IP, 20 mg/kg
[11] = short light (SL) rats, group mean, DMSO vehicle comparison groups
[12] = OFT first session, SL-TCS vs SL-DMSO, 20 mg/kg IP
[13] = OFT first session, Short Light rats, TCS 20 mg/kg IP daily, group mean
[14] = OFT first session, TCS 1102 20 mg/kg IP
[15] = OFT reanalysis, SL rats, IP TCS 1102

## Cn1c(SCC(=O)N2CCC[C@H]2C(=O)Nc2ccccc2-c2ccccc2)nc2ccccc21 [TCS 1102]
[1]
  IC50: 4 nM
[2]
  symptoms after IP injection: Abdominal contractions lasting 10-20 sec
[3]
  depression-related behavior in the FST: no significant effect
[4]; SL-TCS vs SL-DMSO, 20 mg/kg IP
  effect on the AE: Did not significantly modify
[4]; [10]
  effect on the % OAE: Tended to reduce the decrease; also recorded: Increased
  effect on the % TOA: Did not significantly reduce the decrease; also recorded: Did not significantly modify
[4]; TCS 1102 20 mg/kg IP
  anxiogenic-like effect of short light duration: tended to reduce
[4]; [11]
  Number of arm entries (AE): 16.8
  Percentage of open arm entries (% OAE): 32.0%
  Percentage of time spent in open arms (% TOA): 23.1%
[5]
  growth rate: consistently increased the growth rate
[5]; listed as TCS
  growth rate: lessened the SL-induced low growth rate
[5]; TCS 1102 20 mg/kg IP, SL rats
  body weight: no significant effect
[5]; d29-t1, during treatment
  Body weight in percent of initial body weight (d−4): 162.1%
[5]; d31-t3, during treatment
  Body weight in percent of initial body weight (d−4): 161.0%
[5]; d33-t5, during treatment
  Body weight in percent of initial body weight (d−4): 165.8%
[5]; d36-t8, during treatment
  Body weight in percent of initial body weight (d−4): 168.2%
[5]; d38-t10, during treatment
  Body weight in percent of initial body weight (d−4): 169.5%
[5]; d40-t12, during treatment
  Body weight in percent of initial body weight (d−4): 168.9%
[5]; d43-t15, during treatment
  Body weight in percent of initial body weight (d−4): 171.4%
[5]; d45-t17, during treatment
  Body weight in percent of initial body weight (d−4): 172.9%
[5]; d47-t19, during treatment
  Body weight in percent of initial body weight (d−4): 173.2%
[5]; d50-t22, during treatment
  Body weight in percent of initial body weight (d−4): 173.9%
[5]; d52-t24, during treatment
  Body weight in percent of initial body weight (d−4): 176.9%
[5]; d54-t26, during treatment
  Body weight in percent of initial body weight (d−4): 174.7%
[6]
  Brain level: 2370 nM
  CSF level: 43 nM
  plasma level: 3500 nM
[7]
  P-gp (B to A/A to B): 1.4
[8]
  rat in vivo half life: around 0.3 hours
[9]; [12]
  effect on the % Time Center: Tended to increase
  effect on the Distance: Did not significantly modify
[9]; OFT first session, SL-TCS vs SL-DMSO, 20 mg/kg IP, 20 mg/kg
  effect on the % Dist Center: reduced the decrease; also recorded: Increased
[9]; [13]
  % Dist Cent: 11.3%
  % Time Cent: 7.4%
  Distance travelled: 8505.8 cm
[9]; [14]
  anxiogenic-like effect of short light duration: reduced the anxiogenic-like effect of short light duration
  motor exploratory activity: did not modify
[9]; [15]
  another parameter of exploratory behavior (FIGS. 5 and 6, hyper center): similarly treated
  exploratory behaviors (FIG. 4): treated with statistical significance
  thigmotactic anxiety-like behaviors (FIG. 3): treated fully and with statistical significance
